Measurements as given in PubChem BioAssay (NCI).
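Dose response: 5 concentrations. Exposure: 48 h. Format: 96-well plates. Endpoint: linear interpolation; highest concentration if not reached. At the TGI there is no net growth.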

system: M19-MEL melanoma; experiment: NCI-60 cell line screen, 48 h

| Structure (SMILES) | TGI [µM] |
| --- | --- |
| S=C1NCCN1 | > 100 |
| COc1cc2cnc3c4cc(OC(C)C)c(OC)cc4ccc3c2cc1OC | > 100 |
| CC1CN1P1(N2CC2C)=NP(N2CC2C)(N2CC2C)=NP(N2CC2C)(N2CC2C)=N1 (stereo not given) | > 50 |
| C[n+]1c2ccccc2c(NCC(=O)O)c2ccccc21 | > 100 |

system: EKVX NSCLC; experiment: NCI-60 cell line screen, 48 h

| Structure (SMILES) | TGI [µM] |
| --- | --- |
| O=C(/C=C/c1ccccc1Cl)c1ccc(Cl)c(Cl)c1 | 37.4 |
| S=C1NCCN1 | > 100 |
| COc1cc2cnc3c4cc(OC(C)C)c(OC)cc4ccc3c2cc1OC | > 100 |
| CC1CN1P1(N2CC2C)=NP(N2CC2C)(N2CC2C)=NP(N2CC2C)(N2CC2C)=N1 (stereo not given) | > 50 |
| C1=CC2C=CC(C=C1)P2c1ccccc1 (stereo not given) | > 100 |
| C[n+]1c2ccccc2c(NCC(=O)O)c2ccccc21 | > 100 |
| Cc1cc(=O)[nH]c2cc3oc4ccccc4c3cc12 | > 100 |

system: MALME-3M melanoma; experiment: NCI-60 cell line screen, 48 h

| Structure (SMILES) | TGI [µM] |
| --- | --- |
| O=C(/C=C/c1ccccc1Cl)c1ccc(Cl)c(Cl)c1 | 55.7 |
| S=C1NCCN1 | > 100 |
| COc1cc2cnc3c4cc(OC(C)C)c(OC)cc4ccc3c2cc1OC | > 100 |
| CC1CN1P1(N2CC2C)=NP(N2CC2C)(N2CC2C)=NP(N2CC2C)(N2CC2C)=N1 (stereo not given) | > 50 |
| C1=CC2C=CC(C=C1)P2c1ccccc1 (stereo not given) | > 100 |
| C[n+]1c2ccccc2c(NCC(=O)O)c2ccccc21 | > 100 |
| Cc1cc(=O)[nH]c2cc3oc4ccccc4c3cc12 | > 100 |

system: MDA-MB-435; experiment: NCI-60 cell line screen, 48 h

| Structure (SMILES) | TGI [µM] |
| --- | --- |
| C1=CC2C=CC(C=C1)P2c1ccccc1 (stereo not given) | > 100 |
| Cc1cc(=O)[nH]c2cc3oc4ccccc4c3cc12 | > 100 |

system: DU-145 prostate; experiment: NCI-60 cell line screen, 48 h

| Structure (SMILES) | TGI [µM] |
| --- | --- |
| C1=CC2C=CC(C=C1)P2c1ccccc1 (stereo not given) | > 100 |
| Cc1cc(=O)[nH]c2cc3oc4ccccc4c3cc12 | > 100 |

system: SK-MEL-28 melanoma; experiment: NCI-60 cell line screen, 48 h

| Structure (SMILES) | TGI [µM] |
| --- | --- |
| O=C(/C=C/c1ccccc1Cl)c1ccc(Cl)c(Cl)c1 | 40.4 |
| S=C1NCCN1 | > 100 |
| COc1cc2cnc3c4cc(OC(C)C)c(OC)cc4ccc3c2cc1OC | > 100 |
| CC1CN1P1(N2CC2C)=NP(N2CC2C)(N2CC2C)=NP(N2CC2C)(N2CC2C)=N1 (stereo not given) | > 50 |
| C1=CC2C=CC(C=C1)P2c1ccccc1 (stereo not given) | > 100 |
| Cc1cc(=O)[nH]c2cc3oc4ccccc4c3cc12 | > 100 |

system: OVCAR-5 ovarian; experiment: NCI-60 cell line screen, 48 h

| Structure (SMILES) | TGI [µM] |
| --- | --- |
| O=C(/C=C/c1ccccc1Cl)c1ccc(Cl)c(Cl)c1 | 32.8 |
| S=C1NCCN1 | > 100 |
| COc1cc2cnc3c4cc(OC(C)C)c(OC)cc4ccc3c2cc1OC | > 100 |
| C1=CC2C=CC(C=C1)P2c1ccccc1 (stereo not given) | > 100 |
| C[n+]1c2ccccc2c(NCC(=O)O)c2ccccc21 | > 100 |
| Cc1cc(=O)[nH]c2cc3oc4ccccc4c3cc12 | > 100 |

system: MDA-N; experiment: NCI-60 cell line screen, 48 h

| Structure (SMILES) | TGI [µM] |
| --- | --- |
| C1=CC2C=CC(C=C1)P2c1ccccc1 (stereo not given) | > 100 |
| Cc1cc(=O)[nH]c2cc3oc4ccccc4c3cc12 | > 100 |

system: OVCAR-8 ovarian; experiment: NCI-60 cell line screen, 48 h

| Structure (SMILES) | TGI [µM] |
| --- | --- |
| O=C(/C=C/c1ccccc1Cl)c1ccc(Cl)c(Cl)c1 | 33 |
| S=C1NCCN1 | > 100 |
| COc1cc2cnc3c4cc(OC(C)C)c(OC)cc4ccc3c2cc1OC | > 100 |
| CC1CN1P1(N2CC2C)=NP(N2CC2C)(N2CC2C)=NP(N2CC2C)(N2CC2C)=N1 (stereo not given) | > 50 |
| C1=CC2C=CC(C=C1)P2c1ccccc1 (stereo not given) | > 100 |
| C[n+]1c2ccccc2c(NCC(=O)O)c2ccccc21 | > 100 |
| Cc1cc(=O)[nH]c2cc3oc4ccccc4c3cc12 | > 100 |

system: NCI/ADR-RES ovarian; experiment: NCI-60 cell line screen, 48 h

| Structure (SMILES) | TGI [µM] |
| --- | --- |
| C1=CC2C=CC(C=C1)P2c1ccccc1 (stereo not given) | > 100 |
| Cc1cc(=O)[nH]c2cc3oc4ccccc4c3cc12 | > 100 |

system: DMS 114 small cell lung; experiment: NCI-60 cell line screen, 48 h

| Structure (SMILES) | TGI [µM] |
| --- | --- |
| S=C1NCCN1 | > 100 |
| COc1cc2cnc3c4cc(OC(C)C)c(OC)cc4ccc3c2cc1OC | > 100 |
| C[n+]1c2ccccc2c(NCC(=O)O)c2ccccc21 | > 100 |

system: HL-60(TB) leukemia; experiment: NCI-60 cell line screen, 48 h

| Structure (SMILES) | TGI [µM] |
| --- | --- |
| O=C(/C=C/c1ccccc1Cl)c1ccc(Cl)c(Cl)c1 | 60.7 |
| S=C1NCCN1 | > 100 |
| CC1CN1P1(N2CC2C)=NP(N2CC2C)(N2CC2C)=NP(N2CC2C)(N2CC2C)=N1 (stereo not given) | > 50 |
| C1=CC2C=CC(C=C1)P2c1ccccc1 (stereo not given) | > 100 |
| C[n+]1c2ccccc2c(NCC(=O)O)c2ccccc21 | > 100 |
| Cc1cc(=O)[nH]c2cc3oc4ccccc4c3cc12 | 59.3 |

system: HCT-15 colon; experiment: NCI-60 cell line screen, 48 h

| Structure (SMILES) | TGI [µM] |
| --- | --- |
| O=C(/C=C/c1ccccc1Cl)c1ccc(Cl)c(Cl)c1 | 32.2 |
| S=C1NCCN1 | > 100 |
| COc1cc2cnc3c4cc(OC(C)C)c(OC)cc4ccc3c2cc1OC | > 100 |
| CC1CN1P1(N2CC2C)=NP(N2CC2C)(N2CC2C)=NP(N2CC2C)(N2CC2C)=N1 (stereo not given) | > 50 |
| C1=CC2C=CC(C=C1)P2c1ccccc1 (stereo not given) | > 100 |
| C[n+]1c2ccccc2c(NCC(=O)O)c2ccccc21 | > 100 |
| Cc1cc(=O)[nH]c2cc3oc4ccccc4c3cc12 | > 100 |

system: UACC-257 melanoma; experiment: NCI-60 cell line screen, 48 h

| Structure (SMILES) | TGI [µM] |
| --- | --- |
| O=C(/C=C/c1ccccc1Cl)c1ccc(Cl)c(Cl)c1 | 40.2 |
| S=C1NCCN1 | > 100 |
| COc1cc2cnc3c4cc(OC(C)C)c(OC)cc4ccc3c2cc1OC | > 100 |
| C1=CC2C=CC(C=C1)P2c1ccccc1 (stereo not given) | > 100 |
| C[n+]1c2ccccc2c(NCC(=O)O)c2ccccc21 | > 100 |
| Cc1cc(=O)[nH]c2cc3oc4ccccc4c3cc12 | > 100 |

system: UACC-62 melanoma; experiment: NCI-60 cell line screen, 48 h

| Structure (SMILES) | TGI [µM] |
| --- | --- |
| O=C(/C=C/c1ccccc1Cl)c1ccc(Cl)c(Cl)c1 | 45.6 |
| S=C1NCCN1 | > 100 |
| COc1cc2cnc3c4cc(OC(C)C)c(OC)cc4ccc3c2cc1OC | > 100 |
| C1=CC2C=CC(C=C1)P2c1ccccc1 (stereo not given) | > 100 |
| C[n+]1c2ccccc2c(NCC(=O)O)c2ccccc21 | > 100 |
| Cc1cc(=O)[nH]c2cc3oc4ccccc4c3cc12 | > 100 |

system: SNB-19 CNS; experiment: NCI-60 cell line screen, 48 h

| Structure (SMILES) | TGI [µM] |
| --- | --- |
| O=C(/C=C/c1ccccc1Cl)c1ccc(Cl)c(Cl)c1 | 29.9 |
| S=C1NCCN1 | > 100 |
| COc1cc2cnc3c4cc(OC(C)C)c(OC)cc4ccc3c2cc1OC | > 100 |
| CC1CN1P1(N2CC2C)=NP(N2CC2C)(N2CC2C)=NP(N2CC2C)(N2CC2C)=N1 (stereo not given) | > 50 |
| C1=CC2C=CC(C=C1)P2c1ccccc1 (stereo not given) | > 100 |
| C[n+]1c2ccccc2c(NCC(=O)O)c2ccccc21 | > 100 |
| Cc1cc(=O)[nH]c2cc3oc4ccccc4c3cc12 | > 100 |

system: NCI-H522 lung; experiment: NCI-60 cell line screen, 48 h

| Structure (SMILES) | TGI [µM] |
| --- | --- |
| O=C(/C=C/c1ccccc1Cl)c1ccc(Cl)c(Cl)c1 | 31.1 |
| S=C1NCCN1 | > 100 |
| COc1cc2cnc3c4cc(OC(C)C)c(OC)cc4ccc3c2cc1OC | > 100 |
| CC1CN1P1(N2CC2C)=NP(N2CC2C)(N2CC2C)=NP(N2CC2C)(N2CC2C)=N1 (stereo not given) | > 50 |
| C1=CC2C=CC(C=C1)P2c1ccccc1 (stereo not given) | > 100 |
| C[n+]1c2ccccc2c(NCC(=O)O)c2ccccc21 | > 100 |
| Cc1cc(=O)[nH]c2cc3oc4ccccc4c3cc12 | > 100 |

system: HS 578T breast; experiment: NCI-60 cell line screen, 48 h

| Structure (SMILES) | TGI [µM] |
| --- | --- |
| C1=CC2C=CC(C=C1)P2c1ccccc1 (stereo not given) | > 100 |
| Cc1cc(=O)[nH]c2cc3oc4ccccc4c3cc12 | > 100 |

system: CCRF-CEM leukemia; experiment: NCI-60 cell line screen, 48 h

| Structure (SMILES) | TGI [µM] |
| --- | --- |
| O=C(/C=C/c1ccccc1Cl)c1ccc(Cl)c(Cl)c1 | 81.8 |
| S=C1NCCN1 | > 100 |
| COc1cc2cnc3c4cc(OC(C)C)c(OC)cc4ccc3c2cc1OC | > 100 |
| CC1CN1P1(N2CC2C)=NP(N2CC2C)(N2CC2C)=NP(N2CC2C)(N2CC2C)=N1 (stereo not given) | > 50 |
| C1=CC2C=CC(C=C1)P2c1ccccc1 (stereo not given) | > 100 |
| Cc1cc(=O)[nH]c2cc3oc4ccccc4c3cc12 | > 75.9 |
